Some test systems named below: A498 renal; COLO 205 colon; SR leukemia; HCT-15 colon; MOLT-4 leukemia; NCI-H226 lung; U251 CNS; IGROV1 ovarian; OVCAR-8 ovarian; MDA-MB-231 breast.
Holding throughout (test): DTP human tumour cell line panel, 48 h

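96-well plates; 48 h exposure; 5 concentrations. Endpoints by linear interpolation between flanking doses. Not reached: highest tested concentration assigned. GI50 marks 50% less growth. Definition used: TGI = concentration required for complete inhibition of growth.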

Consider `COc1cc2c(cc1Cc1c(F)cccc1Cl)nc(-c1c(F)cccc1Cl)n2Cc1c(F)cccc1Cl`, for which the TGI (as a rule, the concentration at which net growth stops) with A498 renal was 84 µM; with COLO 205 colon it was over 100 µM; in the assay on SR leukemia it was over 100 µM; in the assay with HCT-15 colon, over 100 µM; in the assay with MOLT-4 leukemia, over 100 µM; with NCI-H226 lung, over 100 µM. Also, the TGI with U251 CNS, in the assay on IGROV1 ovarian, with OVCAR-8 ovarian and in the assay on MDA-MB-231 breast was over 100 µM throughout.
On to `CC(C)OC(=O)OCSc1ccccc1N=Cc1cccc([N+](=O)[O-])c1`, for which the TGI in the assay with A498 renal, with COLO 205 colon, with SR leukemia, in the assay on HCT-15 colon, in the assay on MOLT-4 leukemia and with NCI-H226 lung was over 10 µM each time. Also, the TGI in the assay with U251 CNS, in the assay on IGROV1 ovarian, with OVCAR-8 ovarian and with MDA-MB-231 breast was over 10 µM in each case.
For `CSc1n[nH]c(N)c1C(=O)Nc1ccccc1`, the TGI in the assay on A498 renal, in the assay with COLO 205 colon, in the assay with SR leukemia, in the assay on HCT-15 colon, in the assay on MOLT-4 leukemia and with NCI-H226 lung was over 100 µM in each case. Besides, the TGI with U251 CNS, in the assay with IGROV1 ovarian, with OVCAR-8 ovarian and with MDA-MB-231 breast was over 100 µM each time.
With `C=C1c2nc3ccccc3n2C=C(c2ccc(Cl)cc2)N1c1ccc(OC)cc1`, the TGI in the assay on A498 renal is over 100 µM; with COLO 205 colon, over 100 µM; in the assay on SR leukemia, over 100 µM; in the assay with HCT-15 colon, 22.5 µM; in the assay with MOLT-4 leukemia, over 100 µM; in the assay with NCI-H226 lung, 15.6 µM. The TGI with U251 CNS stood at 25.4 µM; in the assay with IGROV1 ovarian, 26.1 µM; in the assay with OVCAR-8 ovarian, 15.8 µM; in the assay with MDA-MB-231 breast it was 53.6 µM.
For `Oc1[nH]c2ccccc2c1N=NC(=S)Nc1ccc(Cl)cc1`, the TGI with A498 renal was 63 µM; in the assay with COLO 205 colon it was over 100 µM; in the assay with SR leukemia, over 100 µM; in the assay on HCT-15 colon, over 100 µM; in the assay with MOLT-4 leukemia, over 100 µM; in the assay on NCI-H226 lung it was 86.4 µM. The TGI in the assay with U251 CNS is over 100 µM; in the assay with IGROV1 ovarian, over 100 µM; in the assay with OVCAR-8 ovarian, 98.8 µM; in the assay on MDA-MB-231 breast, 99.6 µM.
For the molecule `COc1cc2ccc1OCc1cccc(n1)COc1ccc(cc1OC)C=Nc1ccc(cc1)N=C2`, the TGI with A498 renal, with COLO 205 colon, in the assay with SR leukemia, in the assay with HCT-15 colon, in the assay on MOLT-4 leukemia and with NCI-H226 lung was over 100 µM throughout. Moreover, the TGI in the assay on U251 CNS, in the assay on IGROV1 ovarian, with OVCAR-8 ovarian and in the assay on MDA-MB-231 breast was over 100 µM throughout.
For the molecule `NC(=O)N/N=C1\CC2C3CC4C2C4C13` (stereo not given), the TGI in the assay on A498 renal, in the assay on COLO 205 colon, with SR leukemia, in the assay on HCT-15 colon, in the assay on MOLT-4 leukemia and with NCI-H226 lung was over 100 µM in each case. Also, the TGI in the assay on U251 CNS, with IGROV1 ovarian, with OVCAR-8 ovarian and with MDA-MB-231 breast was over 100 µM each time.
Turning to `O=C(Nc1noc(-c2ccccc2)n1)c1ccccc1CNc1noc(-c2ccccc2)n1`, the TGI in the assay on A498 renal, with COLO 205 colon, with SR leukemia, in the assay on HCT-15 colon, in the assay on MOLT-4 leukemia and with NCI-H226 lung was over 100 µM throughout. The TGI in the assay on U251 CNS, in the assay with IGROV1 ovarian, in the assay on OVCAR-8 ovarian and in the assay on MDA-MB-231 breast was over 100 µM in each case.
Turning to `C#CCN(Cc1ccc2nc(OC)c(OC)nc2c1)c1cc(OC)c(OC)c(OC)c1`, the TGI in the assay with A498 renal is over 84.5 µM; with COLO 205 colon, 41.5 µM; in the assay on SR leukemia, over 61.7 µM; with HCT-15 colon, over 87.5 µM; in the assay on MOLT-4 leukemia, 72.6 µM; in the assay on NCI-H226 lung it was 60.6 µM. For the same molecule, the TGI in the assay on U251 CNS is over 80.2 µM; in the assay with IGROV1 ovarian, over 69.6 µM; in the assay on OVCAR-8 ovarian, 64.3 µM; with MDA-MB-231 breast, 43.5 µM.
`CC(=O)O[C@H]1CCc2c(cc(N)c3c2C(=O)C[C@]2(C)C([C@H](C)CCCC(C)C)CCC32C)C1(C)C` (stereo not given in full): the TGI in the assay on A498 renal, in the assay on COLO 205 colon, in the assay with SR leukemia, in the assay with HCT-15 colon, in the assay on MOLT-4 leukemia and in the assay with NCI-H226 lung was over 100 µM in each case. The TGI with U251 CNS, in the assay on IGROV1 ovarian, with OVCAR-8 ovarian and in the assay with MDA-MB-231 breast was over 100 µM in each case.
Take `O=c1[nH]nc(Cc2ccccc2)n1/N=C/c1ccncc1`: the TGI with A498 renal, with COLO 205 colon, in the assay with SR leukemia, in the assay with HCT-15 colon, in the assay with MOLT-4 leukemia and in the assay with NCI-H226 lung was over 100 µM each time. Further, the TGI with U251 CNS, with IGROV1 ovarian, with OVCAR-8 ovarian and in the assay on MDA-MB-231 breast was over 100 µM in each case.
For `OCc1ccc2c(c1)CC1(Cc3ccc(/C=N/O)cc3C1)C2` (stereo not given), the TGI was 96.5 µM in the assay with A498 renal; 13.9 µM in the assay on COLO 205 colon; over 100 µM in the assay with SR leukemia; over 45.1 µM in the assay with HCT-15 colon; over 40.4 µM with MOLT-4 leukemia; 71 µM in the assay with NCI-H226 lung. Moreover, the TGI in the assay with U251 CNS was over 49.3 µM; in the assay with IGROV1 ovarian, over 100 µM; in the assay on OVCAR-8 ovarian it was 35.2 µM; with MDA-MB-231 breast, over 100 µM.
Consider `COc1ccc(CN2C3CC2CN(c2ccc(-c4cc(OCC(C)(C)O)cn5ncc(C#N)c45)cn2)C3)cn1`, for which the GI50 (usually the concentration that inhibits growth by half) was 0.51 µM in the assay with A498 renal; 2.99 µM in the assay with COLO 205 colon; 4.45 µM in the assay with SR leukemia; 37.2 µM in the assay on HCT-15 colon; 52.9 µM in the assay with MOLT-4 leukemia; 1.66 µM in the assay with NCI-H226 lung. Besides, the GI50 is 4.55 µM in the assay on U251 CNS, 4.17 µM in the assay on IGROV1 ovarian, 13.2 µM in the assay with OVCAR-8 ovarian and 8.04 µM in the assay on MDA-MB-231 breast. Besides, the TGI with A498 renal is 3.7 µM; with COLO 205 colon, over 100 µM; with SR leukemia, over 100 µM; in the assay on HCT-15 colon, over 100 µM; with MOLT-4 leukemia, over 100 µM; in the assay on NCI-H226 lung it was over 100 µM. Also, the TGI in the assay with U251 CNS, in the assay with IGROV1 ovarian, with OVCAR-8 ovarian and with MDA-MB-231 breast was over 100 µM in each case.
With `O=C(c1ccncc1)C1C(=O)c2ccccc2C1C1(O)c2ccccc2CC1C(O)c1ccncc1` (stereo not given), the TGI is over 100 µM in the assay on A498 renal; over 100 µM with COLO 205 colon; over 100 µM in the assay on SR leukemia; over 100 µM in the assay with HCT-15 colon; 69.7 µM in the assay with MOLT-4 leukemia; over 100 µM with NCI-H226 lung. For the same molecule, the TGI in the assay with U251 CNS, in the assay on IGROV1 ovarian, with OVCAR-8 ovarian and with MDA-MB-231 breast was over 100 µM throughout.
With `N#Cc1c(-c2ccccc2)cc(-c2ccc(Cl)cc2)[nH]c1=S`, the concentration for total growth inhibition (TGI) was 63.5 µM in the assay with A498 renal; 71.1 µM in the assay with COLO 205 colon; over 100 µM in the assay with SR leukemia; over 100 µM in the assay on HCT-15 colon; over 100 µM in the assay with MOLT-4 leukemia; 80.5 µM in the assay with NCI-H226 lung. The TGI is 48.5 µM in the assay with U251 CNS, 89.8 µM in the assay with IGROV1 ovarian, over 100 µM in the assay on OVCAR-8 ovarian and 67.3 µM in the assay on MDA-MB-231 breast.
In the case of `COC(=O)C1(Cc2ccc3c(c2)CCC3)Cc2ccccc2C1`, the TGI is over 100 µM in the assay with A498 renal; 67.8 µM with COLO 205 colon; over 100 µM in the assay with SR leukemia; over 100 µM in the assay on HCT-15 colon; 31 µM in the assay with MOLT-4 leukemia; over 100 µM in the assay with NCI-H226 lung. Besides, the TGI in the assay on U251 CNS, in the assay on IGROV1 ovarian, with OVCAR-8 ovarian and with MDA-MB-231 breast was over 100 µM throughout.
With `CC(C(=O)O)C(C)(O)C(=O)O` (stereo not given), the TGI in the assay on A498 renal, in the assay on COLO 205 colon, in the assay on SR leukemia, in the assay on HCT-15 colon, in the assay with MOLT-4 leukemia and with NCI-H226 lung was over 100 µM throughout. In addition, the TGI with U251 CNS, with IGROV1 ovarian, with OVCAR-8 ovarian and in the assay on MDA-MB-231 breast was over 100 µM each time.
As to `O=C1CSC2=NC3=C(COC/C3=C\c3ccc(Br)cc3)C(c3ccc(Br)cc3)N12` (stereo not given), the TGI with A498 renal is over 100 µM; in the assay with COLO 205 colon, over 100 µM; in the assay with SR leukemia, 60.9 µM; with HCT-15 colon, over 100 µM; with MOLT-4 leukemia it was 64.2 µM; in the assay with NCI-H226 lung, over 100 µM. The TGI with U251 CNS, in the assay on IGROV1 ovarian, with OVCAR-8 ovarian and in the assay with MDA-MB-231 breast was over 100 µM each time.
